Tests used:
H1299 (wild type) cells [1] = assay: Mitochondrial superoxide, MitoSOX probe, flow cytometer, H1299; assay type: cell-based, human
[2] = system: hair cells of the cochlea; settings: cited from earlier work
H1299 (wild type) cells [3] = assay: Hydrogen peroxide, PO-1 probe, H1299; assay type: cell-based, human
patients = settings: human, in vivo; cited from earlier work
H460 cells [4] = assay: Hydrogen peroxide, PO-1 probe, H460; assay type: cell-based, human
H460 cells [5] = assay: Total reactive oxygen species, CellROX probe, flow cytometer, H460; assay type: cell-based, human
Description: (§1) After the treatments and incubations CellROX fluorogenic probes for total ROS were added for 30 minutes continued incubation and the CellROX signal was measured using a flow cytometer.

H1299 (wild type) cells [6] = assay: Total reactive oxygen species, CellROX probe, flow cytometer, H1299; assay type: cell-based, human
Description: as §1

H460 cells [7] = assay: Mitochondrial superoxide, MitoSOX probe, flow cytometer, H460; assay type: cell-based, human
hamster = hamster oral mucositis, Murphy et al. 2008; cited from earlier work
adult mice = settings: lethal total body irradiation, Thompson et al. 2010; cited from earlier work
rat [8] = settings: Salvemini et al. 1999; cited from earlier work
rat [9] = settings: Salvemini et al. 2001; cited from earlier work
[10] = system: rats subjected to an experimental model of colitis; settings: rat colitis model, Cuzzocrea et al. 2001; cited from earlier work
[11] = system: PARP (poly (ADP ribosyl) polymerase); assay: PARP activation in H1299CAT cells with doxycycline induction of CAT overexpression; assay type: cell-based, human; settings: CAT induced with doxycycline
Source text: When treated with doxcycline, H1299CAT cells express greater levels of human catalase (CAT) than the “parent” cells, H1299 (wild type), eliminating all or part of the H2O2 generated from superoxide by GC4419 or other Mn pentaaza macrocyclic dismutase mimetics.

head and neck patients = settings: concurrent chemoradiotherapy; cited from earlier work
[12] = system: hair cells in mouse cochlea cultures; assay: Cochlear organotypic cultures with cisplatin, hair cell number; assay type: cell-based
Description: Cochlear organotypic cultures. C57BL/10J mice were decapitated on postnatal day 2 or 3. The stria vascularis and spiral ligament was removed and the organ of Corti and spiral ganglion neurons from the middle turn of the cochlea dissected out. The middle turn of the cochlea was placed in a collagen matrix and 1 ml of serum-free BME plus serum free supplement, 1% bovine serum albumin, 2 mM glutamine, 5 mg/ml glucose, and 10 U/ml penicillin on a collagen pre-prepared culture dish. The cochlear explants were incubated at 4% O2, 37° C. in 5% CO2 for 2 h. […] After 24 hours the cultures were fixed for 4 h in 4% paraformaldehyde as previously described (see, e.g., McFadden et al., Toxicol Appl Pharmacol. 2003; 186(1):46-54) and immersed in rhodamine-labeled phalloidin in PBS for 30 min. […] Tissues were examined histologically for inner and outer hair cell organization and number as previously described. Dihydroethidium (DHE) was used to measure oxidative stress. […] The cochlear specimens were incubated with 1 μm DHE for 30 min at 37° C. and then fluorescent images obtained with a confocal laser microscope as previously described (see, e.g., Fetoni et al., The Journal of neuroscience: the official journal of the Society for Neuroscience. 2013; 33(9):4011-23).

CBA/CaJ mice = assay: In vivo multicycle mouse model of cisplatin toxicity; settings: 10 mg/kg GC4419 1 hour prior to 3.0 mg/kg cisplatin IP
[13] = system: head-and-neck cancer patients; settings: patients undergoing chemoradiation therapy, Anderson 2015; cited from earlier work
[14] = system: PARP (poly (ADP ribosyl) polymerase); assay: PARP activation in H460 cells (Western blot, 89 kd active/116 kd inactive form); assay type: cell-based, human
Source text: PARP is a nuclear enzyme involved in DNA repair of single strand breaks and is activated following cell stress including chemotherapy and irradiation.

[15] = system: athymic female Nu/Nu (nude) mice; assay: Cisplatin-induced hematotoxicity in SQ20B tumor-bearing nude mice; assay type: in vivo, mouse
Description: 7 week old athymic female Nu/Nu (nude) mice were implanted in a hind leg with SQ20B human head and neck squamous cell carcinoma cells. […] Mice were assessed for blood counts by tail vein blood collection either 2 days or 2 weeks after the treatment period.

[16] = system: H460 human non-small cell lung carcinoma (NSCLC) cells; assay: Survival of H460 cells in culture with GC4419 and cisplatin; assay type: cell-based; design: dose or concentration left out as unconfirmed; settings: GC4419 added to indicated concentrations of cisplatin, 120 hrs, vs cisplatin alone
Description: After 120 hrs the surviving fraction of cells was determined.

rat [17] = settings: rat model, Tuder et al. 2003; cited from earlier work
[18] = system: H1299 human NSCLC cells, modified to inducibly overexpress catalase (H1299CAT); assay: Survival of H1299CAT cells with GC4419, cisplatin and catalase overexpression; assay type: cell-based; design: dose or concentration left out as unconfirmed; settings: GC4419 added to cisplatin, 120 hours
Source text: CAT overexpression in this line (H1299CAT) was induced by administration of doxycycline, which turned on transcription of the inserted catalase genes.

[19] = system: hair cells in mouse cochlea cultures; assay: Mouse cochlea cultures with paclitaxel, hair cell number; assay type: cell-based; settings: 2 μM GC4419 for 48 or 72 hours (24 hour pre-treatment) with paclitaxel 0.1 μM and 1 μM
Description: Pups from C57BL/B16 pregnant female mice were decapitated on postnatal day 3. The stria vascularis and spiral ligament were removed, and the cochlea dissected out. The cochlea was placed in 400 ul of DMEM 5% FBS on a collagen pre-prepared culture dish and incubated at 4% O2, 37° C. in 5% CO2 for 24 hours. The medium was then exchanged with new medium that contained paclitaxel 0, 100 nM, and 1 μM, with and without 2 μM GC4419 for 48 hours, or pretreated for 24 hours with 2 μM GC4419 followed by paclitaxel treatment. The explants were then fixed for 1 hour in 4% paraformaldehyde. Specimens were stained with anti-myosin-VIIa antibody. Specimens were mounted and examined under a fluorescence microscope and hair cells counted using the image analysis software Imaris.

[20] = system: PARP (poly (ADP ribosyl) polymerase); assay: PARP activation in H1299 (wild type) cells (Western blot); assay type: cell-based, human
Male C57BL/6J mice = assay: Cisplatin-induced acute kidney injury (AKI) model in mice; assay type: in vivo, mouse
Source text: 4 month old male C57BL/6J mice (young) were purchased from Jackson Laboratories and 18 month old mice (old) were obtained as collaboration with Dr. Amy Sindler (University of Iowa) from the National institute of Aging. All mice were maintained in accordance with ACURF approval #4121235 at the University of Iowa Animal Care facility. Mice were maintained on normal diets and water ad libitum through the course of the experiment.
Animals were weighed every other day following the start of treatment with GC4419.

[21] = H1299, cisplatin or cisplatin plus IR
[22] = H460, cisplatin or cisplatin plus IR
[23] = H1299, GC4419 added to cisplatin or cisplatin plus IR
[24] = 10 mg/kg GC4419 + cisplatin + IR
[25] = 10 mg/kg GC4419 + cisplatin + IR, 2 days and 2 weeks after end of treatment
[26] = H460, GC4419 added to cisplatin or cisplatin plus IR
[27] = 10 mg/kg GC4419 daily + cisplatin
[28] = 10 mg/kg GC4419 daily from 4 days prior to 10 mg/kg cisplatin until euthanasia

## N.N.[Cl][Pt][Cl] [cisplatin, reference compound]
H1299 (wild type) cells [1]; [21]
  mitochondrial superoxide (MitoSOX signal): increase in mitochondrial superoxide
[2]
  damage to inner hair cells (IHCs): sparing of inner hair cells (IHCs)
  damage to outer hair cells (OHCs): profoundly damages outer hair cells (OHCs)
H1299 (wild type) cells [3]; [21]
  H2O2 (PO-1 probe): increase in H2O2
patients
  mean cHL: 36 dB
H460 cells [4]; [22]
  H2O2 (PO-1 probe): increase in H2O2
H460 cells [5]; H460, 1 M cisplatin or cisplatin plus 6 Gy IR
  total ROS (CellROX signal): increased total ROS
H1299 (wild type) cells [6]; H1299, 1 M cisplatin or cisplatin plus 6 Gy IR
  total ROS (CellROX signal): increased total ROS
H460 cells [7]; [22]
  mitochondrial superoxide (MitoSOX signal): increase in mitochondrial superoxide

## [Cl-].[Cl-].[Mn+2].c1cc2nc(c1)CN[C@@H]1CCCC[C@H]1NCCN[C@@H]1CCCC[C@H]1NC2 [GC4403]
hamster
  radiation damage: attenuate the radiation damage
Adult mice
  radiation damage: attenuate the radiation damage
Rat [8]
  inflammation: inhibit inflammation
Rat [9]
  joint disease: prevent joint disease
[10]
  injury to the colon: very significantly reduce the injury to the colon

## [Cl][Mn][Cl].c1cc2nc(c1)CN[C@H]1CCCC[C@@H]1NCCN[C@H]1CCCC[C@@H]1NC2 [GC4419]
[11]; 24 M GC4419 + 1 M cisplatin, 24 hours (p<0.01, FIG. 6B)
  PARP activation response to cisplatin: significantly (p<0.05) reduced the PARP activation response
[11]; 24 M GC4419 + 6 Gy IR + 1 M cisplatin, 24 hours (p<0.001, FIG. 6C)
  PARP activation response to IR+cisplatin: significantly (p<0.05) reduced the PARP activation response
[11]; 24 M GC4419 + 6 Gy IR, 24 hours (p<0.05, FIG. 6C)
  PARP activation response to IR: significantly (p<0.05) reduced the PARP activation response
H1299 (wild type) cells [1]; [23]
  mitochondrial superoxide (MitoSOX signal): significantly reduced the increase in mitochondrial superoxide
H1299 (wild type) cells [1]; H1299, GC4419 alone
  basal levels of mitochondrial superoxide (MitoSOX signal): significantly reduced the basal levels of mitochondrial superoxide
Head and neck patients
  incidence of chronic kidney disease: significantly decrease the incidence of chronic kidney disease
[12]; GC4419 0.5, 2 or 4 μM with cisplatin, 24 h
  number of hair cells (FIG. 12A): dose-dependent protection against hair cell damage
[12]; GC4419 with cisplatin
  hair cell damage, microscopy images (FIG. 12B): reduced damage to the hair cells caused by cisplatin and preserved the number of hair cells
CBA/CaJ mice
  weight loss (FIG. 14): reduced the amount of weight loss caused by cisplatin
[13]
  oral mucositis: reduce oral mucositis
[14]; 24 μM GC4419 added to 6 Gy IR + 1 μM cisplatin, 24 hr
  PARP activity (ratio 89 kd active to 116 kd inactive form): significantly increased (p<0.01)
[14]; 24 μM GC4419 added to 6 Gy IR, 24 hr, vs radiation alone
  PARP activity (ratio 89 kd active to 116 kd inactive form): significantly increased PARP activity
[14]; 24 M GC4419 added to 1 M cisplatin, 24 hours, vs cisplatin
  PARP activity (ratio 89 kd active to 116 kd inactive form): further and significantly (p<0.01) increased PARP activity
[15]; [24]
  eosinophil percentage: maintained eosinophil percentage at apparently normal levels
  neutrophil percentage: maintained neutrophil percentage at apparently normal levels
[15]; [25]
  leukocyte (WBC) count: stimulated leukocyte (WBC)
  lymphocyte subset: proportionally lymphocyte subset production
[15]; 10 mg/kg GC4419 every day + cisplatin + IR, two days after end of treatments
  platelets: significantly restored platelet levels
[16]
  surviving fraction of cells: decreased the surviving fraction
Rat [17]
  VEGFr inhibitor-induced pulmonary disease: attenuate VEGFr inhibitor-induced pulmonary disease
H1299 (wild type) cells [3]; [23]
  H2O2 (PO-1 probe): significantly further increases the increase in H2O2
H1299 (wild type) cells [3]; H1299, GC4419 alone
  basal levels of H2O2 (PO-1 probe): significantly increases both the basal levels of H2O2
H460 cells [4]; [26]
  H2O2 (PO-1 probe): significantly further increases the increase in H2O2
H460 cells [4]; H460, GC4419 alone
  basal levels of H2O2 (PO-1 probe): significantly increases both the basal levels of H2O2
[18]; with CAT overexpression (doxycycline)
  surviving fraction of cells: abrogated the GC4419 contribution to cisplatin response
[18]; without CAT overexpression (wt), vs cisplatin alone
  surviving fraction of cells: decreased the surviving fraction
H460 cells [5]; H460, 24 M GC4419 used alone
  total ROS (CellROX signal): little effect on total ROS
H460 cells [5]; H460, GC4419 added to cisplatin therapy
  total ROS (CellROX signal): synergistic effect on total ROS
[19]
  number of hair cells (FIG. 15): protective effect of GC4419 on the hair cells
H1299 (wild type) cells [6]; H1299, 24 M GC4419 used alone
  total ROS (CellROX signal): little effect on total ROS
H1299 (wild type) cells [6]; H1299, GC4419 added to cisplatin therapy
  total ROS (CellROX signal): synergistic effect on total ROS
[20]; 24 μM GC4419 added to 10 μM cisplatin, 24 hr, vs cisplatin
  PARP activity (ratio 89 kd active to 116 kd inactive form): further and significantly p<0.01) increased PARP activity
[20]; 24 M GC4419 added to 6 Gy IR + 1 M cisplatin, 24 hours
  PARP activity (ratio 89 kd active to 116 kd inactive form): significantly increased (p<0.0.05)
[20]; 24 M GC4419 added to 6 Gy IR, 24 hours, vs radiation alone
  PARP activity (ratio 89 kd active to 116 kd inactive form): significantly increased PARP activity
H460 cells [7]; [26]
  mitochondrial superoxide (MitoSOX signal): significantly reduced the increase in mitochondrial superoxide
H460 cells [7]; H460, GC4419 alone
  basal levels of mitochondrial superoxide (MitoSOX signal): significantly reduced the basal levels of mitochondrial superoxide
Male C57BL/6J mice; [27]
  kidney injury molecule 1 (KIM1) biomarker: prevented that injury
  neutrophil gelatinase-associated lipocalin (NGAL) biomarker: prevented that injury
Male C57BL/6J mice; 10 mg/kg GC4419 daily + cisplatin, old mice
  survival: prevented cisplatin mortality
Male C57BL/6J mice; 10 mg/kg GC4419 daily + cisplatin, young and old mice
  weight loss: reduced the amount of weight loss
Male C57BL/6J mice; [28]
  creatinine level: completely prevented these increases in BUN and creatinine
  whole blood urea nitrogen (BUN) level: completely prevented these increases in BUN and creatinine
